Test results: ChEMBL document CHEMBL1121526, “Use of acetylacetone to prepare a prodrug of cycloserine” (1980)

Tests used:
[1] = tested on: Escherichia coli; assay: antibacterial activity was reported as zones of inhibition in the disk diffusion assay using Escherichia coli; type: functional
[2] = organism: Mus musculus; assay: The compound was tested for urinary recovery was assayed for its content of free cycloserine by employing the bioassay in mouse; type: functional, Urine
[3] = tested on: Staphylococcus aureus; assay: antibacterial activity was reported as zones of inhibition in the disk diffusion assay using staphylococcus aureus; type: functional
[4] = organism: Mus musculus; assay: The compound was tested for urinary recovery was assayed for its content for total cycloserine content employing the chemical assay in mouse; type: functional, Urine

Row | Compound | Diameter [1] | Urinary recovery of free cycloserine [2] | Diameter [3] | Urinary recovery of total cycloserine [4]
1 | C/C(O)=C\C(C)=N\C1CONC1=O (stereo not given) | 39 mm | 93% | 36 mm | 64%
2 | CNC(=O)NC1CONC1=O (stereo not given) | 22 mm | <1% | 25 mm | 16%
3 | O=C(CCl)NC1CON(C(=O)CCl)C1=O (stereo not given) | < 6 mm | 1.1% | < 6 mm | 43%
4 | O=C(CCl)NC1CONC1=O (stereo not given) | < 6 mm | 1% | < 6 mm | 70%
5 | CNC(=O)NC1CON(C(=O)NC)C1=O (stereo not given) | < 6 mm | <1% | < 6 mm | <1%
6 | O=C(NC(=O)C(Cl)(Cl)Cl)NC1CONC1=O (stereo not given) | 14 mm | <1% | < 6 mm | 55%
7 | O=C(NC1CONC1=O)C1CCCCC1 (stereo not given) | < 6 mm | 1% | < 6 mm | 53%
8 | CCOC(=O)NC1CONC1=O (stereo not given) | < 6 mm | <1% | < 6 mm | 33%
9 | CC1(C)CC(O)=C/C(=N/C2CONC2=O)C1 (stereo not given) | < 6 mm | <1% | < 6 mm | 55%
10 | N[C@@H]1CONC1=O [CYCLOSERINE] | 39 mm | 64% | 36 mm | 45%
